{
  "source": "patent US7989451B2",
  "about": "“Tricyclic 1,2,4-triazine oxides and compositions for therapeutic use in cancer treatments” (Auckland Uniservices Limited, priority 2005, dated 2011)",
  "key": {"[1]": {"system": "human colon carcinoma HT29", "assay": "Proliferation assay (IC50) under aerobic and hypoxic conditions, HT29", "assay_type": "cell-based", "settings": "for IC50: Homo sapiens, 4 h drug exposure, sulforhodamine B", "method_in_brief": "(§1)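 HT29 (1100) and SiHa (1500) cells in αMEM with 17 mM glucose and 100 μM 2′-dCyd, exposed 4 h at 37 °C to 3-fold dilutions under 20% O2 or anoxia (<0.001% O2). Regrowth 5 (oxic) or 6 (anoxic) days; IC50 by sulforhodamine B. HCR = IC50 aerobic/IC50 hypoxic.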"}, "[2]": {"system": "SiHa, human cervical carcinoma", "assay": "Fractionated tumour excision assay, SiHa xenograft", "assay_type": "in vivo, CD-1 nude mice", "settings": "for log cell kill compared to radiation alone: i.p. at 100% of MTD twice daily for 4 days, 30 min before each of 8×2.5 Gy, excised 18 hr after treatment", "description": "(§2) FIG. 3 illustrates by way of a plot the activity of fractionated dose TPZ and compound 77 against hypoxic cells in three human tumour xenograft models: H460, non-small cell lung carcinoma; HT29, human colon carcinoma; SiHa, human cervical carcinoma. Drugs (1.0× fractionated MTD) were administered 30 min before each of 8×2.5 Gy doses of radiation.\n(§3) The activity of multiple doses of compound 77 and TPZ against hypoxic cells in three human tumour xenografts is illustrated in FIG. 3. Subcutaneous tumours (average of two largest diameters 8-10 mm) were grown by inoculating 10^7 cells into the midline of the back in CD-1 nude mice. Drugs were administered by i.p. injection at 100% of the MTD for twice daily (9 am, 3 pm) administration for 4 days, either alone or 30 min before each of 8×2.5 Gy local irradiation of the tumour. Tumours were excised 18 hr after treatment and plated to determine the number of clonogens/g tumour tissue. Antitumour activity is measured as logs of cell kill in addition to the cell kill observed for radiation alone."}, "[3]": {"system": "HT29, human colon carcinoma", "assay": "Fractionated tumour excision assay, HT29 xenograft", "assay_type": "in vivo, CD-1 nude mice", "settings": "for log cell kill compared to radiation alone: i.p. at 100% of MTD twice daily for 4 days, 30 min before each of 8×2.5 Gy, excised 18 hr after treatment", "description": "as §2, §3"}, "[4]": {"system": "human cervical carcinoma SiHa", "assay": "Proliferation assay (IC50) under aerobic and hypoxic conditions, SiHa", "assay_type": "cell-based", "settings": "for IC50: Homo sapiens, 4 h drug exposure, sulforhodamine B", "method_in_brief": "as §1"}, "[5]": {"system": "H460, non-small cell lung carcinoma", "assay": "Fractionated tumour excision assay, H460 xenograft", "assay_type": "in vivo, CD-1 nude mice", "settings": "for log cell kill compared to radiation alone: i.p. at 100% of MTD twice daily for 4 days, 30 min before each of 8×2.5 Gy, excised 18 hr after treatment", "description": "as §2, §3"}, "[6]": {"system": "hypoxic cells in HT29 tumours", "assay": "HT29 excision assay, single dose in combination with radiation", "assay_type": "in vivo, CD-1 nude mice", "description": "HT29 Excision assay. In vivo activity of single dose of compound 77 in combination with radiation. The activity of compound 77 against hypoxic cells in HT29 tumours is illustrated in FIG. 1. Subcutaneous HT29 tumours (average of two largest diameters 8-10 mm) were grown by inoculating 10^7 cells (obtained by enzymatic dissociation of multicellular spheroids) into CD-1 nude mice. Cmpd 77 was administered as a single i.p. dose (560 μmol/kg, which is 75% of the maximum tolerated dose) alone or 5 min after radiation (20 Gy). Tumours were excised 18 h after treatment and plated to determine the number of clonogens/g tumour tissue."}, "[7]": {"settings": "hypoxic cytotoxicity ratio = IC50 aerobic/IC50 hypoxic"}, "[8]": {"settings": "fractionated drug plus 8×2.5 Gy radiation"}},
  "note": "Where two headings read alike, the source gives them in different places.",
  "data": [
    {"compound": "[O-][n+]1nc(CCCN2CCOCC2)[n+]([O-])c2cc3c(cc21)CCC3", "note": "[Compound 77, 3-[3-(4-Morpholinyl)propyl]-7,8-dihydro-6H-indeno[5,6-e][1,2,4]triazine 1,4-Dioxide]", "values": [
      {"measurement": "IC50", "setting": "[1]; HT-29, hypoxic (anaerobic chamber, <0.001% O2), then 6 days growth, read-out: IC50 (μM) hypoxic", "result": "2.8 ± 0.6", "unit": "µM"},
      {"measurement": "IC50", "setting": "[1]; HT-29, oxic (20% O2), then 5 days growth, read-out: IC50 (μM) oxic", "result": "349 ± 62", "unit": "µM"},
      {"measurement": "HCR", "setting": "[1]; [7]", "result": "127 ± 12"},
      {"measurement": "log cell kill in addition to radiation alone, 77 plus radiation relative to TPZ plus radiation", "setting": "[2]; SiHa tumours, p<0.05, Student's t-test", "result": "significantly greater"},
      {"measurement": "killing relative to TPZ", "setting": "[2]; SiHa, fractionated drug plus 8×2.5 Gy radiation", "result": "greater killing than TPZ"},
      {"measurement": "log cell kill compared to radiation alone", "setting": "[2]; SiHa", "result": "significantly (P<0.05) greater log cell kill"},
      {"measurement": "killing relative to TPZ", "setting": "[3]; [8]", "result": "greater killing than TPZ"},
      {"measurement": "log cell kill compared to radiation alone", "setting": "[3]", "result": "significantly (P<0.05) greater log cell kill"},
      {"measurement": "IC50", "setting": "[4]; hypoxic (anaerobic chamber, <0.001% O2), then 6 days growth, read-out: IC50 (μM) hypoxic", "result": "1.4 ± 0.3", "unit": "µM"},
      {"measurement": "IC50", "setting": "[4]; oxic (20% O2), then 5 days growth, read-out: IC50 (μM) oxic", "result": "302 ± 48", "unit": "µM"},
      {"measurement": "HCR", "setting": "[4]; [7]", "result": "223 ± 14"},
      {"measurement": "killing relative to TPZ", "setting": "[5]; [8]", "result": "greater killing than TPZ"},
      {"measurement": "log cell kill compared to radiation alone", "setting": "[5]", "result": "significantly (P<0.05) greater log cell kill"},
      {"measurement": "Hypoxic cytotoxicity: difference in clonogens/g tumour tissue between radiation-only and radiation+drug groups", "setting": "[6]; single i.p. dose 560 μmol/kg (75% of MTD) 5 min after radiation (20 Gy), tumours excised 18 h after treatment, ANOVA and Dunnett's test", "result": "statistically significant (p<0.05)"},
      {"measurement": "Selectivity for hypoxic cells: activity with radiation versus as a single agent", "setting": "[6]; single i.p. dose 560 μmol/kg alone or 5 min after radiation (20 Gy)", "result": "greater activity of 77 with radiation than as a single agent"}
    ]},
    {"compound": "Nc1n[n+]([O-])c2ccccc2[n+]1[O-]", "note": "[TPZ, tirapazamine, reference compound]", "values": [
      {"measurement": "log cell kill compared to radiation alone", "setting": "[2]; SiHa", "result": "significantly (P<0.05) greater log cell kill"},
      {"measurement": "log cell kill compared to radiation alone", "setting": "[3]", "result": "significantly (P<0.05) greater log cell kill"},
      {"measurement": "log cell kill compared to radiation alone", "setting": "[5]", "result": "significantly (P<0.05) greater log cell kill"}
    ]}
  ]
}
